Reference: patent US20250144094A1 (Erasca, Inc., priority 2021, published 2025)

Target: Recombinant human ULK1 (1-649) (Homo sapiens (Human), UniProt O75385)
Experiment: ULK1 ADP Glo kinase activity assay, new method (ULKtide peptide substrate)
Conditions: 25° C., 40 minutes, read-out: ULK1 biochemical IC50
Summary of the method: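 Kinase activity was read as ADP production (ADP-Glo, luminescence 30 min after detection reagent) following a 40-min, 25 °C reaction of Sf9-expressed GST-ULK1 (1-649) with ULKtide substrate and ATP. Compounds ran as 12-point series starting at 10 μM; four-parameter curve fitting versus DMSO wells gave IC50.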

Chain of Recombinant human ULK1 (1-649) (O75385 1-649): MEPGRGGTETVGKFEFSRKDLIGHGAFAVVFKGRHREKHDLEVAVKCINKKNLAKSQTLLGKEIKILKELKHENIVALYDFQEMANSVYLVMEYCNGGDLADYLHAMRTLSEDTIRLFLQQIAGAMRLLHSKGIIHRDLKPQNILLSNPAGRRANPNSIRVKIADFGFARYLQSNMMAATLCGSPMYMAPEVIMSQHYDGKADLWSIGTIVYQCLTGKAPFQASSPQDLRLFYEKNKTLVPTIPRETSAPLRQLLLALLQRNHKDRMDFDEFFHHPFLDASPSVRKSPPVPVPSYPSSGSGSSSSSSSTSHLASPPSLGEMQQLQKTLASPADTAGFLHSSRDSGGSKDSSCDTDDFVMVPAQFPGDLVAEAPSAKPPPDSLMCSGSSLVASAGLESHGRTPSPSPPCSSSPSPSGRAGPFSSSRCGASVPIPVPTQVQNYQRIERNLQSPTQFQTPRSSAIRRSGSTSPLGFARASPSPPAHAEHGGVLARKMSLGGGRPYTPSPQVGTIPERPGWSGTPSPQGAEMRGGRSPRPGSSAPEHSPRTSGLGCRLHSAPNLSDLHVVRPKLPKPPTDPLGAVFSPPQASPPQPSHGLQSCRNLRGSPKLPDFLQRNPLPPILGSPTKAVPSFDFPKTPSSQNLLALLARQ

IC50 [nM]	SMILES
≤ 5	CSc1cc2c(cc1Nc1ncc(C(F)(F)F)c(-c3cc4c(s3)C(=O)N(C)CCS4(=O)=O)n1)CCNC2 [Example 161, 4-methyl-7-(2-((7-(methylthio)-1,2,3,4-tetrahydroisoquinolin-6-yl)amino)-5-(trifluoromethyl)pyrimidin-4-yl)-3,4-dihydrothieno[2,3-f][1,4]thiazepin-5(2H)-one 1,1-dioxide]
5 to 10	CN1CCS(=O)(=O)c2cc(-c3nc(Nc4ccc(N5CCNCC5)cc4C4CC4)ncc3C(F)(F)F)sc2C1=O [Example 238, 7-(2-((2-cyclopropyl-4-(piperazin-1-yl)phenyl)amino)-5-(trifluoromethyl)pyrimidin-4-yl)-4-methyl-3,4-dihydrothieno[2,3-f][1,4]thiazepin-5(2H)-one 1,1-dioxide]
10 to 50	CN1CCS(=O)(=O)c2cc(-c3nc(Nc4cc(C5CCNCC5)ccc4Cl)ncc3C(F)(F)F)sc2C1=O [Example 149, 7-(2-((2-chloro-5-(piperidin-4-yl)phenyl)amino)-5-(trifluoromethyl)pyrimidin-4-yl)-4-methyl-3,4-dihydrothieno[2,3-f][1,4]thiazepin-5(2H)-one 1,1-dioxide]
≤ 5	O=C1c2sc(-c3nc(Nc4cc5c(cc4C4CC4)CCNC5)ncc3C(F)(F)F)cc2S(=O)(=O)CCN1C1CCC1 [Example 225, 4-cyclobutyl-7-(2-((6-cyclopropyl-1,2,3,4-tetrahydroisoquinolin-7-yl)amino)-5-(trifluoromethyl)pyrimidin-4-yl)-3,4-dihydrothieno[2,3-f][1,4]thiazepin-5(2H)-one 1,1-dioxide]
≤ 5	O=C1c2sc(-c3nc(Nc4cc5c(cc4Cl)CCNC5)ncc3C(F)(F)F)cc2S(=O)(=O)CCN1C1CCC1 [Example 202, 7-(2-((6-chloro-1,2,3,4-tetrahydroisoquinolin-7-yl)amino)-5-(trifluoromethyl)pyrimidin-4-yl)-4-cyclobutyl-3,4-dihydrothieno[2,3-f][1,4]thiazepin-5(2H)-one 1,1-dioxide]
≤ 5	Cc1cnc(Nc2cc3c(cc2Cl)CNCC3)nc1-c1cc2c(s1)C(=O)N(C)CCS2(=O)=O [Example 259, 7-(2-((7-chloro-1,2,3,4-tetrahydroisoquinolin-6-yl)amino)-5-methylpyrimidin-4-yl)-4-methyl-3,4-dihydrothieno[2,3-f][1,4]thiazepin-5(2H)-one 1,1-dioxide]
≤ 5	CN1CCS(=O)(=O)c2cc(-c3nc(Nc4cnc(N5C[C@H]6C[C@@H]5CN6)cc4C4CC4)ncc3C(F)(F)F)sc2C1=O [Example 382, 7-(2-((6-((1R,4R)-2,5-diazabicyclo[2.2.1]heptan-2-yl)-4-cyclopropylpyridin-3-yl)amino)-5-(trifluoromethyl)pyrimidin-4-yl)-4-methyl-3,4-dihydrothieno[2,3-f][1,4]thiazepin-5(2H)-one 1,1-dioxide]
≤ 5	O=C1c2sc(-c3nc(Nc4ccc(C5CCN(CC6CC6)CC5)cc4C4CC4)ncc3C(F)(F)F)cc2S(=O)(=O)CCN1C1CC1 [Example 241, 4-cyclopropyl-7-(2-((2-cyclopropyl-4-(1-(cyclopropylmethyl)piperidin-4-yl)phenyl)amino)-5-(trifluoromethyl)pyrimidin-4-yl)-3,4-dihydrothieno[2,3-f][1,4]thiazepin-5(2H)-one 1,1-dioxide]
≤ 5	CCc1cc(N2CCNCC2)ccc1Nc1ncc(C(F)(F)F)c(-c2cc3c(s2)C(=O)N(C)CCS3(=O)=O)n1 [Example 174, 7-(2-((2-ethyl-4-(piperazin-1-yl)phenyl)amino)-5-(trifluoromethyl)pyrimidin-4-yl)-4-methyl-3,4-dihydrothieno[2,3-f][1,4]thiazepin-5(2H)-one 1,1-dioxide]
10 to 50	CC(C)(F)CN1CCc2cc(Nc3ncc(C(F)(F)F)c(-c4cc5c(s4)C(=O)N(C4COC4)CCS5(=O)=O)n3)c(C3CC3)cc2C1 [Example 300, 7-(2-((7-cyclopropyl-2-(2-fluoro-2-methylpropyl)-1,2,3,4-tetrahydroisoquinolin-6-yl)amino)-5-(trifluoromethyl)pyrimidin-4-yl)-4-(oxetan-3-yl)-3,4-dihydrothieno[2,3-f][1,4]thiazepin-5(2H)-one 1,1-dioxide]
≤ 5	CCc1cc(N2CCN(C)[C@@H](CO)C2)ccc1Nc1ncc(C(F)(F)F)c(-c2cc3c(s2)C(=O)N(C2CC2)CCS3(=O)=O)n1 [Example 408, (R)-4-cyclopropyl-7-(2-((2-ethyl-4-(3-(hydroxymethyl)-4-methylpiperazin-1-yl)phenyl)amino)-5-(trifluoromethyl)pyrimidin-4-yl)-3,4-dihydrothieno[2,3-f][1,4]thiazepin-5(2H)-one 1,1-dioxide]
≤ 5	CCc1cc2c(cc1Nc1ncc(C(F)(F)F)c(-c3cc4c(s3)C(=O)N(C3CC3)CCS4(=O)=O)n1)CCNC2 [Example 207, 4-cyclopropyl-7-(2-((7-ethyl-1,2,3,4-tetrahydroisoquinolin-6-yl)amino)-5-(trifluoromethyl)pyrimidin-4-yl)-3,4-dihydrothieno[2,3-f][1,4]thiazepin-5(2H)-one 1,1-dioxide]
≤ 5	O=C1c2sc(-c3nc(Nc4cc5c(nc4C4CC4)CNCC5)ncc3C(F)(F)F)cc2S(=O)(=O)CCN1C1CC1 [Example 303, 4-cyclopropyl-7-(2-((2-cyclopropyl-5,6,7,8-tetrahydro-1,7-naphthyridin-3-yl)amino)-5-(trifluoromethyl)pyrimidin-4-yl)-3,4-dihydrothieno[2,3-f][1,4]thiazepin-5(2H)-one 1,1-dioxide]
≤ 5	O=C1c2sc(-c3nc(Nc4cc5c(cc4C4CC4)CN(CC4CC4)CC5)ncc3C(F)(F)F)cc2S(=O)(=O)CCN1C1CC1 [Example 235, 4-cyclopropyl-7-(2-((7-cyclopropyl-2-(cyclopropylmethyl)-1,2,3,4-tetrahydroisoquinolin-6-yl)amino)-5-(trifluoromethyl)pyrimidin-4-yl)-3,4-dihydrothieno[2,3-f][1,4]thiazepin-5(2H)-one 1,1-dioxide]
> 100	Cc1c(Nc2ncc(C(F)(F)F)c(-c3cc4c(s3)C(=O)N(C)CCS4(=O)=O)n2)cnn1C1CCNCC1 [Example 176, 4-methyl-7-(2-((5-methyl-1-(piperidin-4-yl)-1H-pyrazol-4-yl)amino)-5-(trifluoromethyl)pyrimidin-4-yl)-3,4-dihydrothieno[2,3-f][1,4]thiazepin-5(2H)-one 1,1-dioxide]
≤ 5	O=C1NCCS(=O)(=O)c2cc(-c3nc(Nc4cn(C5CCNCC5)nc4C4CC4)ncc3C(F)(F)F)sc21 [Example 151, 7-(2-((3-cyclopropyl-1-(piperidin-4-yl)-1H-pyrazol-4-yl)amino)-5-(trifluoromethyl)pyrimidin-4-yl)-3,4-dihydrothieno[2,3-f][1,4]thiazepin-5(2H)-one 1,1-dioxide]
≤ 5	CCc1cc(N2CCN(C)[C@@H](C)C2)ccc1Nc1ncc(C(F)(F)F)c(-c2cc3c(s2)C(=O)N(C2CC2)CCS3(=O)=O)n1 [Example 361, (S)-4-cyclopropyl-7-(2-((4-(3,4-dimethylpiperazin-1-yl)-2-ethylphenyl)amino)-5-(trifluoromethyl)pyrimidin-4-yl)-3,4-dihydrothieno[2,3-f][1,4]thiazepin-5(2H)-one 1,1-dioxide]
≤ 5	CCc1cc2c(cc1Nc1ncc(C(F)(F)F)c(-c3cc4c(s3)C(=O)N(C3CC3)CCS4(=O)=O)n1)CCN(CC)C2 [Example 228, 4-cyclopropyl-7-(2-((2,7-diethyl-1,2,3,4-tetrahydroisoquinolin-6-yl)amino)-5-(trifluoromethyl)pyrimidin-4-yl)-3,4-dihydrothieno[2,3-f][1,4]thiazepin-5(2H)-one 1,1-dioxide]
≤ 5	O=S1(=O)CCOCc2sc(-c3nc(Nc4cc5c(cc4Cl)CNCC5)ncc3C(F)(F)F)cc21 [Example 163, 7-(2-((7-chloro-1,2,3,4-tetrahydroisoquinolin-6-yl)amino)-5-(trifluoromethyl)pyrimidin-4-yl)-2,3-dihydro-5H-thieno[3,2-e][1,4]oxathiepine 1,1-dioxide]
≤ 5	CCc1cc2c(cc1Nc1ncc(C(F)(F)F)c(-c3cc4c(s3)C(=O)N(C3CC3)CCS4(=O)=O)n1)CNCC2 [Example 220, 4-cyclopropyl-7-(2-((6-ethyl-1,2,3,4-tetrahydroisoquinolin-7-yl)amino)-5-(trifluoromethyl)pyrimidin-4-yl)-3,4-dihydrothieno[2,3-f][1,4]thiazepin-5(2H)-one 1,1-dioxide]
50 to 100	CN1CCS(=O)(=O)c2cc(-c3nc(Nc4cc(N5CCNCC5)ccc4Cl)ncc3C(F)(F)F)sc2C1=O [Example 189, 7-(2-((2-chloro-5-(piperazin-1-yl)phenyl)amino)-5-(trifluoromethyl)pyrimidin-4-yl)-4-methyl-3,4-dihydrothieno[2,3-f][1,4]thiazepin-5(2H)-one 1,1-dioxide]
10 to 50	CN1CCC(c2ccc(Cl)c(Nc3ncc(C(F)(F)F)c(-c4cc5c(s4)C(=O)N(C)CCS5(=O)=O)n3)c2)CC1 [Example 150, 7-(2-((2-chloro-5-(1-methylpiperidin-4-yl)phenyl)amino)-5-(trifluoromethyl)pyrimidin-4-yl)-4-methyl-3,4-dihydrothieno[2,3-f][1,4]thiazepin-5(2H)-one 1,1-dioxide]
≤ 5	CCc1cc(N2CCN(C)[C@H](C)C2)ccc1Nc1ncc(C(F)(F)F)c(-c2cc3c(s2)C(=O)N(C2CC2)CCS3(=O)=O)n1 [Example 360, (R)-4-cyclopropyl-7-(2-((4-(3,4-dimethylpiperazin-1-yl)-2-ethylphenyl)amino)-5-(trifluoromethyl)pyrimidin-4-yl)-3,4-dihydrothieno[2,3-f][1,4]thiazepin-5(2H)-one 1,1-dioxide]

SMILES	IC50 [nM]
CN1[C@@H]2CC[C@H]1CN(c1ccc(Nc3ncc(C(F)(F)F)c(-c4cc5c(s4)C(=O)N(C4COC4)CCS5(=O)=O)n3)c(C3CC3)c1)C2 [Example 320, 7-(2-((2-cyclopropyl-4-((1R,5S)-8-methyl-3,8-diazabicyclo[3.2.1]octan-3-yl)phenyl)amino)-5-(trifluoromethyl)pyrimidin-4-yl)-4-(oxetan-3-yl)-3,4-dihydrothieno[2,3-f][1,4]thiazepin-5(2H)-one 1,1-dioxide]	≤ 5
